This note sets out measurements from paper PMC4176160, “Characterization of three mycobacterial DinB (DNA polymerase IV) paralogs highlights DinB2 as naturally adept at ribonucleotide incorporation” (Nucleic Acids Research, 2014).

Each structure is given as a SMILES string. Like-named read-outs stand apart in the source and are kept apart here.

This experiment deals with T1, DinB2 (MsmDinB2) (Mycolicibacterium smegmatis, UniProt A0QR77).
T1 construct: gene dinB; full-length 356 aa, 39 kDa, monomer; expressed in E. coli BL21(DE3) as His10Smt3 fusion, tag removed with Ulp1
T1 sequence (A0QR77 entry or part of it): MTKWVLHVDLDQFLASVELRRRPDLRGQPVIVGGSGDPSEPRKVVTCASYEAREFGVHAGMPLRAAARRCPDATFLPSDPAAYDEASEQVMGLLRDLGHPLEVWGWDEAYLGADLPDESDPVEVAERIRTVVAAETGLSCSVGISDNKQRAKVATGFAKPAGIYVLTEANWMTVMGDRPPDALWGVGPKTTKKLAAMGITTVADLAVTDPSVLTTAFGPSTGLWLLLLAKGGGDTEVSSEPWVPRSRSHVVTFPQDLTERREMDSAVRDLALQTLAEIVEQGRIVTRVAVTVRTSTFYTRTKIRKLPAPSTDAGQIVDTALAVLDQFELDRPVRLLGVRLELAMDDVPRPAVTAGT
The experiment is described as follows: primer extension, kobs of first nucleotide addition vs nucleotide concentration, hyperbolic fit. The class given is biochemical. Particulars: 5 mM MgCl2, 10 mM Tris-HCl pH 7.5, 37 °C, 1 μM enzyme, read-out: apparent Kd.

Setting [1] is: 50 nM 13-mer/18-mer DNA primer-template with dT as first template base.
The mark [2] stands for this setting: 50 nM 13-mer/18-mer DNA primer-template with dG as first template base.
Where [3] appears, read: 50 nM 13-mer/18-mer DNA primer-template with dC as first template base.
Setting [4] is: 50 nM 13-mer/18-mer DNA primer-template with dA as first template base.

`Nc1ncnc2c1ncn2[C@@H]1O[C@H](COP(=O)(O)OP(=O)(O)OP(=O)(O)O)[C@@H](O)[C@H]1O` [ATP]: under setting [1], the Kd came out at 66 µM.

In the case of `Nc1ccn([C@@H]2O[C@H](COP(=O)(O)OP(=O)(O)OP(=O)(O)O)[C@@H](O)[C@H]2O)c(=O)n1` [CTP], under setting [2], the Kd was found to be 44 µM.

With `Nc1nc2c(ncn2[C@@H]2O[C@H](COP(=O)(O)OP(=O)(O)OP(=O)(O)O)[C@@H](O)[C@H]2O)c(=O)[nH]1` [GTP], the Kd under setting [3] is 22 µM.

Take `O=c1ccn([C@@H]2O[C@H](COP(=O)(O)OP(=O)(O)OP(=O)(O)O)[C@@H](O)[C@H]2O)c(=O)[nH]1` [UTP]: the Kd under setting [4] was determined as 411 µM.

In the case of `Nc1ncnc2c1ncn2[C@H]1C[C@H](O)[C@@H](COP(=O)(O)OP(=O)(O)OP(=O)(O)O)O1` [dATP], the Kd under setting [1] came out at 0.85 µM.

For the molecule `Nc1ccn([C@H]2C[C@H](O)[C@@H](COP(=O)(O)OP(=O)(O)OP(=O)(O)O)O2)c(=O)n1` [dCTP], the Kd under setting [2] came to 1.5 µM.

In the case of `Nc1nc2c(ncn2[C@H]2C[C@H](O)[C@@H](COP(=O)(O)OP(=O)(O)OP(=O)(O)O)O2)c(=O)[nH]1` [dGTP], the Kd under setting [3] was 0.87 µM.

Regarding `Cc1cn([C@H]2C[C@H](O)[C@@H](COP(=O)(O)OP(=O)(O)OP(=O)(O)O)O2)c(=O)[nH]c1=O` [dTTP], the Kd under setting [4] worked out at 8 µM.
